Data published in the supplement of paper PMC10307832.

What was measured:
Assay in all cases: relative viability (nuclei count vs DMSO), 5 days (fraction); higher = more cells survive
Vorinostat + Navitoclax = compound: O=C(CCCCCCC(=O)Nc1ccccc1)NO [Vorinostat] + CC1(C)CCC(c2ccc(Cl)cc2)=C(CN2CCN(c3ccc(C(=O)NS(=O)(=O)c4ccc(N[C@H](CCN5CCOCC5)CSc5ccccc5)c(S(=O)(=O)C(F)(F)F)c4)cc3)CC2)C1 [Navitoclax] (partner 0.5 µM)
How it was run: (§1)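 Relative viability was taken as the ratio of nuclei in treated wells to nuclei in vehicle wells. Lung cancer cell lines in 1536-well plates received compounds by pin tool one day after seeding, either one drug alone or a fixed anchor-drug dose plus five library-drug doses (not always all listed) in √10 steps. Nuclei were counted on 4× images after 5 days of treatment, and values are medians of duplicate plates.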

Vorinostat + Tozasertib = compound: O=C(CCCCCCC(=O)Nc1ccccc1)NO [Vorinostat] + Cc1cc(Nc2cc(N3CCN(C)CC3)nc(Sc3ccc(NC(=O)C4CC4)cc3)n2)n[nH]1 [Tozasertib] (partner 0.1 µM)
How it was run: as §1

Vorinostat + AZD7762 = compound: O=C(CCCCCCC(=O)Nc1ccccc1)NO [Vorinostat] + NC(=O)Nc1cc(-c2cccc(F)c2)sc1C(=O)N[C@H]1CCCNC1 [AZD7762] (partner 0.2 µM)
How it was run: as §1

Vorinostat + Pemetrexed = compound: O=C(CCCCCCC(=O)Nc1ccccc1)NO [Vorinostat] + Nc1nc2[nH]cc(CCc3ccc(C(=O)N[C@@H](CCC(=O)O)C(=O)O)cc3)c2c(=O)[nH]1 [Pemetrexed] (partner 0.2 µM)
How it was run: as §1

Vorinostat + Olaparib = compound: O=C(CCCCCCC(=O)Nc1ccccc1)NO [Vorinostat] + O=C(c1cc(Cc2n[nH]c(=O)c3ccccc23)ccc1F)N1CCN(C(=O)C2CC2)CC1 [Olaparib] (partner 8 µM)
How it was run: as §1

Cell Line	relative viability (Vorinostat + Navitoclax; first compound 0.253 µM)	relative viability (Vorinostat + Navitoclax; first compound 0.8 µM)	relative viability (Vorinostat + Navitoclax; first compound 2.53 µM)	relative viability (Vorinostat + Navitoclax; first compound 8 µM)	relative viability (Vorinostat + Tozasertib; first compound 0.253 µM)	relative viability (Vorinostat + Tozasertib; first compound 0.8 µM)	relative viability (Vorinostat + Tozasertib; first compound 2.53 µM)	relative viability (Vorinostat + Tozasertib; first compound 8 µM)	relative viability (Vorinostat + AZD7762; first compound 0.253 µM)	relative viability (Vorinostat + AZD7762; first compound 0.8 µM)	relative viability (Vorinostat + AZD7762; first compound 2.53 µM)	relative viability (Vorinostat + AZD7762; first compound 8 µM)	relative viability (Vorinostat + Pemetrexed; first compound 0.253 µM)	relative viability (Vorinostat + Pemetrexed; first compound 0.8 µM)	relative viability (Vorinostat + Pemetrexed; first compound 2.53 µM)	relative viability (Vorinostat + Pemetrexed; first compound 8 µM)	relative viability (Vorinostat + Olaparib; first compound 0.253 µM)	relative viability (Vorinostat + Olaparib; first compound 0.8 µM)	relative viability (Vorinostat + Olaparib; first compound 2.53 µM)	relative viability (Vorinostat + Olaparib; first compound 8 µM)
201T	1.24	1.25	1.2	0.472	0.742	0.534	0.334	0.203	0.527	0.595	0.495	0.197	0.327	0.323	0.253	0.25	0.852	0.814	0.523	0.255
A549	1.31	1.08	0.352	0.0351													0.278	0.177	0.0609	0.0236
A-427	1.06	0.906	0.812	0.171	0.182	0.168	0.134	0.0919	0.67	0.459	0.239	0.156	1.02	0.925	0.433	0.196	0.71	0.789	0.468	0.21
BEN	0.0469	0.0584	0.0602	0.0509	0.463	0.441	0.248	0.0886	0.645	0.661	0.439	0.125	0.712	0.572	0.474	0.145	1.15	0.791	0.281	0.1
CAL-12T	1.16	1.14	0.56	0.101	0.446	0.246	0.162	0.109	0.639	0.603	0.337	0.162	1.36	1.31	1.08	0.126	0.82	0.824	0.532	0.138
COR-L23	1.13	0.503	0.0887	0.0849	0.19	0.0976	0.105	0.0594					0.2	0.182	0.148	0.12	0.301	0.246	0.0921	0.0666
COR-L 105	0.741	0.58	0.257	0.234	0.458	0.331	0.245	0.213					1.21	1.25	0.7	0.281	0.727	0.821	0.589	0.266
ChaGo-K-1	1.01	0.92	0.582	0.276	0.221	0.213	0.191	0.164	0.862	0.867	0.567	0.173	0.254	0.26	0.254	0.218	0.46	0.34	0.219	0.141
EKVX	0.955	1.13	0.588	0.143	0.39	0.275	0.194	0.11	0.838	0.489	0.199	0.136	0.384	0.413	0.386	0.146	1.02	0.833	0.335	0.15
EMC-BAC-2	1.21	1.13	0.692	0.131	0.199	0.202	0.149	0.144	1.02	0.653	0.447	0.174	0.377	0.368	0.26	0.208	0.448	0.382	0.216	0.139
EPLC-272H	0.984	1	0.242	0.0967	0.289	0.249	0.189	0.149	0.135	0.171	0.069	0.138	0.367	0.381	0.212	0.159	0.827	0.565	0.2	0.13
H3255	0.595	0.598	0.2	0.0872	0.705	0.525	0.277	0.219	0.989	0.923	0.507	0.279	0.656	0.573	0.56	0.289	0.588	0.52	0.326	0.222
HARA	1.17	1.16	0.606	0.086	0.139	0.104	0.0618	0.0739	0.2	0.245	0.146	0.125	0.239	0.217	0.205	0.125	0.966	0.454	0.0979	0.0743
HCC-15	0.82	0.594	0.324	0.0877	0.294	0.219	0.101	0.0559	1.39	1.11	1.06	0.363	0.219	0.216	0.172	0.099	0.672	0.631	0.35	0.106
HCC-44	0.986	0.967	0.542	0.137	1.1	0.296	0.184	0.141	1.01	1.02	0.879	0.526	0.663	0.683	0.628	0.485	1.04	1.05	0.658	0.317
HCC-78	0.711	0.324	0.15	0.116	0.384	0.268	0.167	0.2	0.451	0.464	0.223	0.199	0.888	0.852	0.875	0.868	0.778	0.615	0.221	0.201
HCC-366	1.03	0.9	0.135	0.0208	0.0967	0.0579	0.033	0.031	0.459	0.195	0.0622	0.0231	0.169	0.174	0.0867	0.0396	0.249	0.116	0.0308	0.0193
HCC-827	1.04	1.03	0.818	0.195	0.5	0.454	0.236	0.135	0.181	0.321	0.215	0.178	0.269	0.278	0.212	0.153	0.776	0.632	0.344	0.15
HOP-62	0.969	0.779	0.215	0.0581	0.405	0.32	0.116	0.08	0.258	0.518	0.145	0.0514	0.393	0.28	0.212	0.0997	0.468	0.35	0.16	0.0785

Cell Line	relative viability (Vorinostat + Navitoclax; first compound 0.253 µM)	relative viability (Vorinostat + Navitoclax; first compound 0.8 µM)	relative viability (Vorinostat + Navitoclax; first compound 2.53 µM)	relative viability (Vorinostat + Navitoclax; first compound 8 µM)	relative viability (Vorinostat + Tozasertib; first compound 0.253 µM)	relative viability (Vorinostat + Tozasertib; first compound 0.8 µM)	relative viability (Vorinostat + Tozasertib; first compound 2.53 µM)	relative viability (Vorinostat + Tozasertib; first compound 8 µM)	relative viability (Vorinostat + AZD7762; first compound 0.253 µM)	relative viability (Vorinostat + AZD7762; first compound 0.8 µM)	relative viability (Vorinostat + AZD7762; first compound 2.53 µM)	relative viability (Vorinostat + AZD7762; first compound 8 µM)	relative viability (Vorinostat + Pemetrexed; first compound 0.253 µM)	relative viability (Vorinostat + Pemetrexed; first compound 0.8 µM)	relative viability (Vorinostat + Pemetrexed; first compound 2.53 µM)	relative viability (Vorinostat + Pemetrexed; first compound 8 µM)	relative viability (Vorinostat + Olaparib; first compound 0.253 µM)	relative viability (Vorinostat + Olaparib; first compound 0.8 µM)	relative viability (Vorinostat + Olaparib; first compound 2.53 µM)	relative viability (Vorinostat + Olaparib; first compound 8 µM)
LC-2-ad	0.539	0.277	0.102	0.113	0.418	0.303	0.217	0.147	0.867	0.632	0.226	0.159	0.273	0.268	0.263	0.19	0.706	0.541	0.267	0.19
LCLC-103H					0.377	0.27	0.162	0.127	0.696	0.672	0.45	0.238	0.471	0.425	0.452	0.32	0.844	0.737	0.413	0.247
NCI-H358					0.128	0.11	0.0949	0.0726	0.466	0.312	0.14	0.159	0.155	0.155	0.152	0.0859	0.722	0.609	0.227	0.0636
NCI-H520	1.17	0.845	0.256	0.162	0.422	0.37	0.207	0.209					0.831	0.663	0.322	0.17	0.299	0.264	0.184	0.116
NCI-H650					0.686	0.421	0.154	0.136	0.606	0.737	0.235	0.165	0.953	0.918	0.287	0.11	0.375	0.275	0.121	0.129
NCI-H661					0.342	0.262	0.249	0.269					0.926	0.78	0.455	0.355	0.767	0.569	0.392	0.323
NCI-H727	0.433	0.506	0.241	0.196	0.545	0.56	0.315	0.362	0.514	0.874	0.617	0.398					0.682	0.745	0.525	0.401
NCI-H1563													0.877	0.651	0.708	0.384				
NCI-H1703	1.46	1.47	0.888	0.161					0.126		0.189	0.0985					0.407	0.51	0.625	0.157
NCI-H1792	0.763	0.601	0.392	0.0388					0.568	0.29	0.0683	0.0252	0.795	0.524	0.163	0.0208	0.235	0.218	0.0385	0.0192
NCI-H2009	1.16	1.16	0.722	0.141	0.776	0.574	0.295	0.133					0.993	0.955	0.666	0.131	0.729	0.582	0.395	0.0928
NCI-H2023	1.08	0.91	0.449	0.0939	0.364	0.215	0.11	0.0623					0.233	0.182	0.103	0.067	0.403	0.296	0.113	0.0691
NCI-H2228	0.953	0.809	0.473	0.132	0.199	0.103	0.0837	0.0871					0.336	0.297	0.252	0.132	0.501	0.499	0.223	0.124
SK-LU-1	0.785	0.528	0.109	0.111	0.303	0.186	0.143	0.101					0.936	0.807	0.64	0.179	0.417	0.399	0.323	0.14
SK-MES-1	1.51	1.18	0.494	0.162	0.86	0.662	0.235	0.136					1.08	1.07	0.553	0.207	0.84	0.774	0.327	0.181
SW 900					0.584	0.315	0.213	0.113	0.606	0.418	0.229	0.0892	0.502	0.483	0.308	0.147	0.901	0.589	0.192	0.113
SW 1573	1.12	0.891	0.349	0.0555	0.19	0.266	0.155	0.0644					1.2	1.05	0.346	0.0659	0.745	0.399	0.212	0.0539
UMC-11	0.277	0.154	0.0896	0.0856	0.195	0.164	0.147	0.129					0.756	0.453	0.119	0.0862	0.374	0.235	0.0709	0.064
